PubChem BioAssay (NCI)
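Protocol summary: plate cells (96-well), add compound at 5 concentrations, incubate 48 h, interpolate endpoints linearly. GI50 = concentration required for 50% inhibition of growth. TGI: total growth inhibition.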

Legend:
Assay in all cases: growth of human tumour cells (NCI), 48 h
MALME-3M melanoma = tested on: MALME-3M melanoma
DU-145 prostate = tested on: DU-145 prostate
U251 CNS = tested on: U251 CNS
ACHN renal = tested on: ACHN renal
OVCAR-8 ovarian = tested on: OVCAR-8 ovarian
SNB-75 CNS = tested on: SNB-75 CNS
MDA-MB-435 = tested on: MDA-MB-435
NCI-H522 lung = tested on: NCI-H522 lung
CCRF-CEM leukemia = tested on: CCRF-CEM leukemia
OVCAR-5 ovarian = tested on: OVCAR-5 ovarian

Row | Compound | GI50 (MALME-3M melanoma) [µM] | TGI (MALME-3M melanoma) [µM] | GI50 (DU-145 prostate) [µM] | TGI (DU-145 prostate) [µM] | GI50 (U251 CNS) [µM] | TGI (U251 CNS) [µM] | GI50 (ACHN renal) [µM] | TGI (ACHN renal) [µM] | GI50 (OVCAR-8 ovarian) [µM] | TGI (OVCAR-8 ovarian) [µM] | GI50 (SNB-75 CNS) [µM] | TGI (SNB-75 CNS) [µM] | GI50 (MDA-MB-435) [µM] | TGI (MDA-MB-435) [µM] | GI50 (NCI-H522 lung) [µM] | TGI (NCI-H522 lung) [µM] | GI50 (CCRF-CEM leukemia) [µM] | TGI (CCRF-CEM leukemia) [µM] | GI50 (OVCAR-5 ovarian) [µM] | TGI (OVCAR-5 ovarian) [µM]
1 | COc1cc2c3c(n(CCCN(C)C)c(=O)c2cc1OC)-c1ccccc1C3=O | 7.38 | > 100 | 5.05 | 24.7 | 12.2 | > 55.9 | 6.9 | 20.8 | 7.87 | > 100 | 6.9 | > 100 | 19.1 | > 100 | 5.59 | > 100 | 0.24 | 1.73 | > 91.6 | > 100
2 | N#C/C(=C/N1CCN(C(=O)c2ccco2)C1=S)C(=O)c1ccccc1 | 30.7 | > 100 | 5.01 | > 100 | 17 | > 100 | 16.6 | 72.5 | 25.4 | > 100 | 68.2 | > 100 | 11 | 60.6 | 3.74 | 12.3 | 41.9 | > 100 |  | 
3 | CCc1ccccc1NC(=O)c1sc2nc3c(cc2c1N)C(=O)CCC3 | 26.2 | > 100 | 0.589 | > 100 | 0.608 | 51.7 | 1.17 | > 100 | 2.88 | > 100 | 0.346 | 55.1 | 0.0598 | 0.336 | 0.502 | > 100 | 0.352 | > 100 | 1.96 | > 100
4 | COc1cc2ncn(-c3cc(OCCc4ccccc4)c(C(N)=O)s3)c2cc1OC | > 25 | > 25 | > 23.2 | > 25 | > 25 | > 25 | > 25 | > 25 | > 25 | > 25 | > 25 | > 25 | 9.55 | > 25 | > 18.1 | > 25 | 8.5 | > 25 | > 25 | > 25
5 | Cc1cn2c(/C=C3\C(=O)N(C)c4ccc(O)cc43)c(C)nc2s1 | 8.58 | > 100 | 21 | > 100 | 5.64 | > 100 | 13.3 | > 100 | 11.3 | > 100 | 2.86 | 10.2 | 1.19 | 3.92 | 3.02 | 13.7 | 6 | > 100 | 27.8 | > 100
